# In ChEMBL document CHEMBL4507319 (2021):
# Key:
# [1] = biological target: Protein kinase C beta type (Homo sapiens) (UniProt P05771); assay: PKCbetaII (h) Eurofins kinase panel; conditions: Compound concentration 1.0 uM
# [2] = biological target: T1, Serine/threonine-protein kinase BRSK2 (Homo sapiens) (UniProt Q8IWQ3); assay: BrSK2(h) Eurofins kinase panel; conditions: Compound concentration 1.0 uM
# T1 sequence (whole entry): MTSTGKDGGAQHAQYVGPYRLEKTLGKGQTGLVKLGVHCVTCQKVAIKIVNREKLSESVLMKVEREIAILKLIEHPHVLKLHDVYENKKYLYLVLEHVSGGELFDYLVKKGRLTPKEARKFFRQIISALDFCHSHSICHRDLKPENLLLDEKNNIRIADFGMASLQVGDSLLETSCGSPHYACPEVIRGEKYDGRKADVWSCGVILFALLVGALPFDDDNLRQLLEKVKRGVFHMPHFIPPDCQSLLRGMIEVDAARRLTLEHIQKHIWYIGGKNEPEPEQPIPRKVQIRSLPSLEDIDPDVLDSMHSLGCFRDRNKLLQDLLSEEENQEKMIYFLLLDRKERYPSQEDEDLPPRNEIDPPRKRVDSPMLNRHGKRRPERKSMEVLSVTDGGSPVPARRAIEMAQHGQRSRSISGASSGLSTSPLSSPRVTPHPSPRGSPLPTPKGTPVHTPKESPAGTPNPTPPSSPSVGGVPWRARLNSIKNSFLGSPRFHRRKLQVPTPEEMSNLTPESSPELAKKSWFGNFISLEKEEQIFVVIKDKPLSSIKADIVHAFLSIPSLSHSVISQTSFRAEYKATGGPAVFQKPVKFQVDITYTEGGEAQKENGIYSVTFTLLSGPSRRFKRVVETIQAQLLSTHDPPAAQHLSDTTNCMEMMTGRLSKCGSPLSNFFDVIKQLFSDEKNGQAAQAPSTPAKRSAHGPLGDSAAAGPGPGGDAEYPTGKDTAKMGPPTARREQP
# [3] = biological target: Ribosomal protein S6 kinase alpha-4 (Homo sapiens) (UniProt O75676); assay: MSK2(h) Eurofins kinase panel; conditions: Compound concentration 1.0 uM
# Ribosomal protein S6 kinase alpha-4 (Homo sapiens), sequence (O75676 whole entry, looked up): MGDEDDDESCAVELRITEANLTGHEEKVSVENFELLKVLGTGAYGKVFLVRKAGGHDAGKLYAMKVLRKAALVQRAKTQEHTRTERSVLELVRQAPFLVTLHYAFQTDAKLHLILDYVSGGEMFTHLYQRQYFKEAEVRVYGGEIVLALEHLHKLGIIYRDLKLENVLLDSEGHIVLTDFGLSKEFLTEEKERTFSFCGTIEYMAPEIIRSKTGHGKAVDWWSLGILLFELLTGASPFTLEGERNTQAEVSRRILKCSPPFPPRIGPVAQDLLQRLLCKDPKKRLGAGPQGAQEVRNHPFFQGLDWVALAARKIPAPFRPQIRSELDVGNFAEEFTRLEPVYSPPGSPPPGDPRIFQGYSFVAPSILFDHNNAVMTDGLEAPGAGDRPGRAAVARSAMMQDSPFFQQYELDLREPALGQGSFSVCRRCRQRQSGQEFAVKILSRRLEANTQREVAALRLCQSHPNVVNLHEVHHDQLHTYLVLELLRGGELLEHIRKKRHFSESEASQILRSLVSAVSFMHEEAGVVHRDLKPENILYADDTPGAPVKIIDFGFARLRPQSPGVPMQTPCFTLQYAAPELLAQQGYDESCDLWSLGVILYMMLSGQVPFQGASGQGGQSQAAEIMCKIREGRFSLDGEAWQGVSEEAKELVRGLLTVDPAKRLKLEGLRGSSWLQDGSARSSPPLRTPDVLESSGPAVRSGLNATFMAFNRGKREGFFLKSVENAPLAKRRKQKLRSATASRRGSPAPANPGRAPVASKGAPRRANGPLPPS
# [4] = test system: NCI-H460; assay: NCI- H460 cell line Proliferation assay; format: functional, Homo sapiens; conditions: time 3 day
# [5] = biological target: Receptor-interacting serine/threonine-protein kinase 2 (Homo sapiens) (UniProt O43353); assay: RIPK2(h) Eurofins kinase panel; conditions: Compound concentration 1.0 uM
# Receptor-interacting serine/threonine-protein kinase 2 (Homo sapiens), sequence (O43353 whole entry): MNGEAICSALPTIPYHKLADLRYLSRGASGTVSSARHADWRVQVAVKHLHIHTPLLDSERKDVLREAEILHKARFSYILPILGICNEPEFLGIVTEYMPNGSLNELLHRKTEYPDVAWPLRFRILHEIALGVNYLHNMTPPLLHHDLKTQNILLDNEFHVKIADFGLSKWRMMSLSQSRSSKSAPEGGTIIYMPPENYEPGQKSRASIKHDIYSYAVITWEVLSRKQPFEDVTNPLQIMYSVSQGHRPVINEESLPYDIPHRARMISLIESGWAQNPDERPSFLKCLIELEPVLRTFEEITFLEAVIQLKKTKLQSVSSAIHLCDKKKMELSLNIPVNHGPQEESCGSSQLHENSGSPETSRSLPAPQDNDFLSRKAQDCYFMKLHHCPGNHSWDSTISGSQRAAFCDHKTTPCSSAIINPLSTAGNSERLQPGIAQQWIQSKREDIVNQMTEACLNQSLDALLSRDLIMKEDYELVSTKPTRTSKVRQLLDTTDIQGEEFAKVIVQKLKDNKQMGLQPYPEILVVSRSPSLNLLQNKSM
# [6] = biological target: T2, Ephrin type-B receptor 1 (Homo sapiens) (UniProt P54762); assay: EphB1(h) Eurofins kinase panel; conditions: Compound concentration 1.0 uM
# T2 sequence (whole entry): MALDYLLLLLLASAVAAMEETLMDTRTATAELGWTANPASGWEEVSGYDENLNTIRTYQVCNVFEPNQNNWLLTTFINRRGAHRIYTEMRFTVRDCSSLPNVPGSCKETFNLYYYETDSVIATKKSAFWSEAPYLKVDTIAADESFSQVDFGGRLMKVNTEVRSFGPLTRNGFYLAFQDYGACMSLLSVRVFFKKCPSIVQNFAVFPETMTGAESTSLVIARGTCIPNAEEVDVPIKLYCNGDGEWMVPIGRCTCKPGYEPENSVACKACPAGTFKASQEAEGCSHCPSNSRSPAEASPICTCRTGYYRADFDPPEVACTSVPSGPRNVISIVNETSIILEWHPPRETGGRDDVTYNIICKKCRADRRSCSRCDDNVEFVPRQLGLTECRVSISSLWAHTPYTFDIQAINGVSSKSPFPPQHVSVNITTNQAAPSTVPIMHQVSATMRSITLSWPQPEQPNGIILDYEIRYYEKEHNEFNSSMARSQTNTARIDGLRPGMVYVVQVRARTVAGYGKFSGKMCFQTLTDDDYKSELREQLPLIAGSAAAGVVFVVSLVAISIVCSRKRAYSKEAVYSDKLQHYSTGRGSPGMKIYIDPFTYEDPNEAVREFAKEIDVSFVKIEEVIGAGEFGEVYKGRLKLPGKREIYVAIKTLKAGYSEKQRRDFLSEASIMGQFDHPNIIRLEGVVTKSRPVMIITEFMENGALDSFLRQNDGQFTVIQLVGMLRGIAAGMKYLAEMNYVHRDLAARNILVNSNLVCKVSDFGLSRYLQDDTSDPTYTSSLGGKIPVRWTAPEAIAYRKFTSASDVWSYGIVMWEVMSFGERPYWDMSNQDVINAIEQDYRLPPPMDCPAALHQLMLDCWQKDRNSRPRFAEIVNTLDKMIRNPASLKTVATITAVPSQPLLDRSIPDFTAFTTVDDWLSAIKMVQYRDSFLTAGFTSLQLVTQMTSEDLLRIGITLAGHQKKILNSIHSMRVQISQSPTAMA
# [7] = biological target: T3, Serine/threonine-protein kinase 17B (Homo sapiens) (UniProt O94768); assay: DRAK2(h) Eurofins kinase panel; conditions: Compound concentration 1.0 uM
# T3 sequence (whole entry): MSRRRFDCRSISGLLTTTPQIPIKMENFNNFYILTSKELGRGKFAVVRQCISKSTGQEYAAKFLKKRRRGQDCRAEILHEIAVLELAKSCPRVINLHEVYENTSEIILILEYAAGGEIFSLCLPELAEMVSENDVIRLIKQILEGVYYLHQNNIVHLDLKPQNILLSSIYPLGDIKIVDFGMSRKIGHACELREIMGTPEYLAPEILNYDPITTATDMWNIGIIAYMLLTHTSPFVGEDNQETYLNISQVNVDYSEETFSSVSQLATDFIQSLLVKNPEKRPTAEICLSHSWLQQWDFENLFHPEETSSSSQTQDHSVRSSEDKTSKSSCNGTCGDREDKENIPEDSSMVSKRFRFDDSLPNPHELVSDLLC
# [8] = biological target: Serine/threonine-protein kinase Nek7 (Homo sapiens) (UniProt Q8TDX7); assay: NEK7(h) Eurofins kinase panel; conditions: Compound concentration 1.0 uM
# Serine/threonine-protein kinase Nek7 (Homo sapiens), sequence (Q8TDX7 whole entry, looked up): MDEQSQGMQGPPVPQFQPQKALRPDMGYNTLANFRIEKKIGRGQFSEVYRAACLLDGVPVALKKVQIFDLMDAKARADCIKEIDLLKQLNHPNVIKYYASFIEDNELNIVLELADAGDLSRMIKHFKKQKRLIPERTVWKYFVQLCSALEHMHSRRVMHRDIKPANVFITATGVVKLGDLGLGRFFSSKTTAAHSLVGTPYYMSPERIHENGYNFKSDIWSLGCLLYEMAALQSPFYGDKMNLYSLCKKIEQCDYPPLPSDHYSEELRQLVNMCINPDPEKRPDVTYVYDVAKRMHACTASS
# Protein kinase C beta type (Homo sapiens), sequence (P05771 2-671 limits assumed): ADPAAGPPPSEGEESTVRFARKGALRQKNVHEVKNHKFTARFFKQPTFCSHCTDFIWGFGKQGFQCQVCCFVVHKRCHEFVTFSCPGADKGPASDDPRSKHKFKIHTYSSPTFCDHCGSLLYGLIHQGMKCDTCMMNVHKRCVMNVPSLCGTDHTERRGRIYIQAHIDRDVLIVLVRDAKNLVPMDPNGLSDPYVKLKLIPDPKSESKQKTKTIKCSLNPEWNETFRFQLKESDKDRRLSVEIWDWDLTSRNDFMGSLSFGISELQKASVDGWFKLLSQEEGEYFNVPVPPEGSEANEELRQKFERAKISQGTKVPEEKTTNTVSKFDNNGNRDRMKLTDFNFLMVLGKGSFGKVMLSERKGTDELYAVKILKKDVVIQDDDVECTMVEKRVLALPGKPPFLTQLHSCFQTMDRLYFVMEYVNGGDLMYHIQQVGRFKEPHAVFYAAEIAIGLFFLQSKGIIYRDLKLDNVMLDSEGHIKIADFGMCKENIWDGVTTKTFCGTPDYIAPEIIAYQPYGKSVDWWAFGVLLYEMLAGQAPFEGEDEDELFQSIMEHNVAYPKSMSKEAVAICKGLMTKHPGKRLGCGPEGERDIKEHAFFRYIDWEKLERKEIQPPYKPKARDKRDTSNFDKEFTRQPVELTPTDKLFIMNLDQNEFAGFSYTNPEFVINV
smiles,measurement,setting,value
CCc1ccccc1C(=O)Nc1n[nH]c2c(C)c(F)c(C3C(C#N)=C(C)N(C)C(C)=C3C#N)cc12 [BAY-3827],% residual kinase activity,[1],42%
same,% residual kinase activity,[2],34%
same,% residual kinase activity,[3],27%
same,Cell Proliferation IC50,[4],>33 µM
same,% residual kinase activity,[5],115%
same,% residual kinase activity,[6],96%
same,% residual kinase activity,[7],99%
same,% residual kinase activity,[8],112%
